Test results published in ChEMBL document CHEMBL5360655, “Design, Synthesis, and Biological Evaluation of Novel P2X7 Receptor Antagonists for the Treatment of Septic Acute Kidney Injury” (J Med Chem, 2023).
The source made the active and inactive calls. The calls are words filed in the database; no cut-off is given here.

Columns and labels:
[1] = target: T1, P2X purinoceptor 7 (Homo sapiens) (UniProt Q99572); experiment: Antagonist activity at human P2X7 receptor expressed in HEK293 cells assessed as inhibition of ATP-induced receptor pore formation at 200 nM by propidium iodide dye uptake based fluorescence analysis; type: cell-based; settings: filed as antagonist
T1 sequence (whole entry): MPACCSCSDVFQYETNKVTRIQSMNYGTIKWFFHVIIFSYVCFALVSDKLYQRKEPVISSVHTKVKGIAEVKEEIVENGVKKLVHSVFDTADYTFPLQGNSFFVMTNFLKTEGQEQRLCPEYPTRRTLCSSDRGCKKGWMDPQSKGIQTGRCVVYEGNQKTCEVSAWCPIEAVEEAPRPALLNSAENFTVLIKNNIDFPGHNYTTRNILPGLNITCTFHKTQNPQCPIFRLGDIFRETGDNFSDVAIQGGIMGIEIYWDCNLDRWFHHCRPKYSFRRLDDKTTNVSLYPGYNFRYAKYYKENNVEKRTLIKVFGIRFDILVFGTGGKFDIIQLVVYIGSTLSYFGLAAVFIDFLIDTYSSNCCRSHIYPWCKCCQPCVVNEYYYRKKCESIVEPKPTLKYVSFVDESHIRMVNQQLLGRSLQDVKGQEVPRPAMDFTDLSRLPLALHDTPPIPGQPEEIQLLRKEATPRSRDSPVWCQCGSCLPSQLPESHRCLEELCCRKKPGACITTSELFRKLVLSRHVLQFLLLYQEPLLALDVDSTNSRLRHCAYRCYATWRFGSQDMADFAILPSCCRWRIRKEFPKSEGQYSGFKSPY

[2] = target: T2, P2X purinoceptor 7 (Mus musculus) (UniProt Q9Z1M0); experiment: Antagonist activity at mouse P2X7 receptor expressed in HEK293 cells assessed as inhibition of ATP-induced receptor pore formation at 200 nM by propidium iodide dye uptake based fluorescence analysis; type: cell-based; settings: filed as antagonist
T2 sequence (whole entry): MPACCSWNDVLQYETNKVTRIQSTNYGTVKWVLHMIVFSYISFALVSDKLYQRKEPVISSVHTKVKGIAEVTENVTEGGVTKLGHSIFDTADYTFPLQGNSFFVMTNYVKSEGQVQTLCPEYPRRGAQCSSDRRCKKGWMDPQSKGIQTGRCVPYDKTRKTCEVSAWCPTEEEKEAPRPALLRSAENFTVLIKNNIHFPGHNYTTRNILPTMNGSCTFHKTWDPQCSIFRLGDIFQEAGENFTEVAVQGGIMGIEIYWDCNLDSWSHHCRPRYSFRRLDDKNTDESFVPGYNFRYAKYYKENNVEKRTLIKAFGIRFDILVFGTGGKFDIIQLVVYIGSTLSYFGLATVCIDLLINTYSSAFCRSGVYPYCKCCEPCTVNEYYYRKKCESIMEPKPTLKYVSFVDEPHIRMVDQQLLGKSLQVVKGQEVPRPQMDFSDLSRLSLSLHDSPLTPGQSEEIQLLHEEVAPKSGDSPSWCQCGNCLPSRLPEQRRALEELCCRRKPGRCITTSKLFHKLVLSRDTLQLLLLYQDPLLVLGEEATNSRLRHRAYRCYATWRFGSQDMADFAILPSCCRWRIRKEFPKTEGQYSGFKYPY

P2X purinoceptor 7 = target: T3, P2X purinoceptor 7 (Homo sapiens, UniProt Q99572); experiment: Antagonist activity at human P2X7 receptor expressed in HEK293 cells assessed as inhibition of ATP-induced receptor pore formation by propidium iodide dye uptake based fluorescence analysis; type: cell-based
T3 sequence (Q99572 whole entry): T1 sequence (whole entry)

[3] = Intrinsic clearance in human liver microsomes; type: ADME, Microsome; settings: read-out: CLH
[4] = Intrinsic clearance in mouse liver microsomes; type: ADME, Microsome; settings: read-out: CLH
[5] = Half life in BALB/c mouse at 10 mg/kg, po measured for 24 hrs by LC-MS/MS analysis; type: ADME, organism-based; settings: in vivo
[6] = Tmax in BALB/c mouse at 10 mg/kg, iv measured for 24 hrs by LC-MS/MS analysis; type: ADME, organism-based; settings: in vivo
[7] = AUC(0 to t) in BALB/c mouse at 10 mg/kg, ip measured for 24 hrs by LC-MS/MS analysis; type: ADME, organism-based; design: dose 10 mg/kg, time 24 hrs, route ip; settings: in vivo
Cytochrome P450 2C19 = Cytochrome P450 2C19 (Homo sapiens, UniProt P33261); experiment: Inhibition of CYP2C19 in human liver microsomes using S-mephenytoin as substrate upto 100 uM incubated for 10 mins in presence of NADPH by LC-MS/MS analysis; type: ADME, Microsome
THP-1 = experiment: Inhibition of ATP-induced ROS production in human THP-1 cells at […] pretreated with LPS for 3 hrs followed by incubation with compound for 40 mins followed by treatment with ATP for 1 hr by DCFH-DA staining based fluorescence microscopic analysis; type: functional, cell-based; settings: dose 2.5 µM, time 100.0 min
[8] = Toxicity in C57BL/6J mouse assessed as pathological changes in heart at 20 mg/kg, ip administered twice at 0 hrs and 8 hrs and measured after 16 hrs by Hematoxylin-Eosin staining based analysis; type: organism-based; settings: in vivo
[9] = Toxicity in C57BL/6J mouse assessed as pathological changes in kidney at 20 mg/kg, ip administered twice at 0 hrs and 8 hrs and measured after 16 hrs by Hematoxylin-Eosin staining based analysis; type: organism-based; settings: in vivo
[10] = Toxicity in C57BL/6J mouse assessed as pathological changes in testes at 20 mg/kg, ip administered twice at 0 hrs and 8 hrs and measured after 16 hrs by Hematoxylin-Eosin staining based analysis; type: organism-based; settings: in vivo
[11] = Toxicity in C57BL/6J mouse assessed as mortality at 600 mg/kg, ip measured for 14 days; type: organism-based; settings: in vivo, 336 h, time 14 day
[12] = Toxicity in C57BL/6J mouse assessed as animal's survival rate at 400 mg/kg, ip measured for 14 days; type: organism-based; settings: in vivo, time 14 day
Mus musculus [13] = experiment: (§1) Reno-protective activity against LPS-induced acute kidney injury C57BL/6J mouse model assessed as decrease in tubular injury by measuring improvement of infiltration of inflammatory cells at 5 to 20 mg/kg, ip administered twice at 30 mins prior to LPS challenge and 8 hrs post-LPS challenge and measured at 16 hrs post-LPS challenge by Hematoxylin-Eosin staining based analysis; type: functional, organism-based; settings: dose 5-20 mg/kg, time 16.5 hrs
Mus musculus [14] = experiment: as §1, with “epithelial flattening and tubular dilation” for “improvement of infiltration of inflammatory cells”; type: functional, organism-based; settings: dose 5-20 mg/kg, time 16.5 hrs
Mus musculus [15] = experiment: Reno-protective activity against CLP-induced acute kidney injury C57BL/6J mouse model assessed as decrease in BUN level at 20 mg/kg, ip administered twice at 30 mins prior to CLP operation and 8 hrs post-CLP operation and measured at 16 hrs post-CLP operation; type: functional, organism-based; settings: time 16.5 hrs
Mus musculus [16] = experiment: (§2) Reno-protective activity against CLP-induced acute kidney injury C57BL/6J mouse model assessed as decrease in Nlrp3 gene expression in kidney at 20 mg/kg, ip administered twice at 30 mins prior to CLP operation and 8 hrs post-CLP operation and measured at 16 hrs post-CLP operation by RNA sequencing analysis; type: functional, organism-based; settings: time 16.5 hrs
Mus musculus [17] = experiment: as §2, with “Tnfa-gene” for “Nlrp3 gene”; type: functional, organism-based; settings: time 16.5 hrs
Mus musculus [18] = experiment: as §2, with “GSDMD-N protein” for “Nlrp3 gene”, “western blot” for “RNA sequencing”; type: functional, organism-based; settings: time 16.5 hrs

Sequence of Cytochrome P450 2C19 (P33261 whole entry): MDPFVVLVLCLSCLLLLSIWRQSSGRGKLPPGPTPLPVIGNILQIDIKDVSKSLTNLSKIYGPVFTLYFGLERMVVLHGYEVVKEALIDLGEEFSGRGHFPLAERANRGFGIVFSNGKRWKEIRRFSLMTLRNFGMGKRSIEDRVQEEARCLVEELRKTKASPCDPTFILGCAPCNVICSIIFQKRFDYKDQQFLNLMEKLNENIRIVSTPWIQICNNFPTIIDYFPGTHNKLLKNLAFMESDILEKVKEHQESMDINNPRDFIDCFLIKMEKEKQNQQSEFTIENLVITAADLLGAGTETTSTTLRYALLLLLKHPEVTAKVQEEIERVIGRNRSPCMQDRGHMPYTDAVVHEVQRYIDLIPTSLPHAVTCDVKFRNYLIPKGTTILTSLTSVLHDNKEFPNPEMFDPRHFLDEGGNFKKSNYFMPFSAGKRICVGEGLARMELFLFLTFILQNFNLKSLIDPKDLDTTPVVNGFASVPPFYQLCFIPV

What does the source list for `CS(=O)(=O)c1ccc(-c2nc(C(=O)NCc3cn(-c4cc(Br)ccn4)nn3)cs2)cc1`?
inhibition [1]: 92%; inhibition [2]: 101%; IC50 (P2X purinoceptor 7): 64.7 nM; CLint scaled [3]: 16.6 mL/min/kg; CLint scaled [4]: < 12 mL/min/kg; half-life [5]: 1.92 h; Tmax [6]: 0.19 h; AUC(0-t) at 24 h [7]: 11900 ng·h/mL; inhibition (INH) (Cytochrome P450 2C19): Not Active; inhibition (THP-1): Active; Activity [8]: Non-Toxic; Activity [9]: Non-Toxic; Activity [10]: Non-Toxic; Activity [11]: Toxic; survival at 336 h [12]: 100%; Activity (Mus musculus [13]): Dose-Dependent Effect; Activity (Mus musculus [14]): Dose-Dependent Effect; Activity (Mus musculus [15]): Active; Activity (Mus musculus [16]): Active; Activity (Mus musculus [17]): Active; Activity (Mus musculus [18]): Active
